The source of these data is patent US9556492B2, “Corn plant MON88017 and compositions and methods for detection thereof” (Monsanto Technology LLC, priority 2003, dated 2017).

The assay concerns corn rootworm larvae. Nature of the assay: corn rootworm feeding damage field screen, root damage rated on the Node-Injury Scale. Type of assay: in vivo, Diabrotica spp. The settings on record: Node-Injury Scale 0-3; insecticide treated non-insecticidal protein containing corn plants; 5 ounces per 1000 feet of row; artificially infested plots. Here is the method: Transgenic corn plants were assayed for corn rootworm resistance to feeding damage by greenhouse and field screens. Root damage was rated using the Node-Injury Scale (NIS) developed by Oleson and Tollefson of Iowa State University, this scale rates damage done to corn roots using 0-3 values. The 0.00 value describes no feeding damage and is the lowest rating, 1.00 describes one node or the equivalent of an entire node eaten back to within approximately two inches of the stalk, 2.00 describes two complete nodes eaten, and 3.00 describes three or more nodes eaten and is the highest rating. Damage in between complete nodes eaten is noted as the percentage of the node missing, i.e., 1.50 describes 1½ nodes eaten, 0.25 describes ¼ of one node eaten. Field plots were artificially infested with corn rootworm larvae by applying 1500-2000 eggs per linear foot of row at the V3-V4 growth stage. Insecticide treated rows were treated with Tefluthrin insecticide (Force® 3G, Zeneca Ag Products) at a rate of 5 ounces per 1000 feet of row.

With `Cc1c(F)c(F)c(COC(=O)[C@@H]2[C@H](/C=C(\Cl)C(F)(F)F)C2(C)C)c(F)c1F` (racemic) [Tefluthrin], the “average RDR” value turned out to be 0.44.
